Here are results for 39 compounds from patent US6342508B1, “N-hydroxy-2-(Alkyl,Aryl or Heteroaryl sulfanyl, sulfinyl or sulfonyl) 3-substituted alkyl, aryl or heteroarylamides as matrix metalloproteinase inhibitors” (American Cyanamid Company, priority 1997, dated 2002).

Where two headings read alike, the source gives them in different places.

One data set addresses T1, TACE (Homo sapiens, UniProt P78536).
T1 construct: purchased Immunex
Kind of data set: Procedure for Measuring TACE Inhibition (fluorescent peptidyl substrate). In kind it is biochemical. The procedure: Using 96-well black microtiter plates, each well recieves a solution composed of 10 μL TACE (Immunex, final concentration 1 μg/mL), 70 μL Tris buffer, pH 7.4 containing 10% glycerol (final concentration 10 mM), and 10 μL of test compound solution in DMSO (final concentration, DMSO concentration <1%) and incubated for 10 minutes at room temperature. The reaction is initiated by addition of a fluorescent peptidyl substrate (final concentration 100 μM) to each well and then shaking on a shaker for 5 sec. The reaction is read (excitation 340 nm, emission 420 nm) for 10 min. and the increase in fluorescence over time is plotted as a linear line. The slope of the line is calculated and represents the reaction rate. […] The mean (x±sem) of the control rate is calculated and compared for statistical significance (p<0.05) with drug-treated rates using Dunnett's multiple comparison test.

A further data set deals with MMP 13 (Homo sapiens, UniProt P45452). In words: MMP 13 inhibition (HTS). In kind it is biochemical.

T1 sequence (P78536 215-824): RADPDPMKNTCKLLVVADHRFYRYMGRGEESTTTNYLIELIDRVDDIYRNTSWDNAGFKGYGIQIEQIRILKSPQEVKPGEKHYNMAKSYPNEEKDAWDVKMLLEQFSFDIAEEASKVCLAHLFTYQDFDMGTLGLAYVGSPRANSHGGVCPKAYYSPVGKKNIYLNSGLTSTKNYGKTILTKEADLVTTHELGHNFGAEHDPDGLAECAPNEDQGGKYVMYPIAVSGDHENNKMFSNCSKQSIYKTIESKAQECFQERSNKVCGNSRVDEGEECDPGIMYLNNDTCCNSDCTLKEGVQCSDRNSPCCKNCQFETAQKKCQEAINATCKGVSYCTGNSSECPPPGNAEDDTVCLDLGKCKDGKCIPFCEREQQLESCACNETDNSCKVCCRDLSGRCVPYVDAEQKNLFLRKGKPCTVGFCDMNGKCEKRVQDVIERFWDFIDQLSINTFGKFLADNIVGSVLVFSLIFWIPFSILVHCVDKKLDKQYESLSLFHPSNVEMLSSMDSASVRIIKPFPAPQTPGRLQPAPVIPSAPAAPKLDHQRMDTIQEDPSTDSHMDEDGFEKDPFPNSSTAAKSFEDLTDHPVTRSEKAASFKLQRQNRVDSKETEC

`CC(C)=CCC(CC=C(C)C)(C(=O)NO)S(=O)(=O)c1ccc(C)cc1` [Example 42, 5-Methyl-2-(3-methyl-but-2-enyl)-2-(toluene-4-sulfonyl)-hex-4-enoic acid hydroxyamide] showed a melting point of 108 to 110 °C. Besides, at TACE (read-out: TACE IC 50), the IC50 worked out at 36.5 nM.

For the compound “3-(1-Hydroxycarbamoyl-heptylsulfanyl)-benzoic acid hydroxyamide [Example 184]”, the “MMP 13 % inhibition at 36 nM (HTS)” value on MMP 13 worked out at 16%. Further, the “TACE % inhibition at 1 mM” value at TACE is 24.8%.

As for `CCCCCCC(Sc1ccc(OC)c(OC)c1)C(=O)NO` (stereo not drawn) [Example 165, 2-(3,4-Dimethoxybenzenesulfanyl)-octanoic acid hydroxyamide], at MMP 13, the “MMP 13 % inhibition at 0.2 μM (HTS)” value is listed as 71%.

In the case of `CCCCCCCCC(C(=O)NO)[S+]([O-])c1ccc([S+](C)[O-])cc1` (stereo not drawn) [Example 144, 2-(4-methanesulfinyl-benzenesulfinyl)decanoic acid hydroxamide], the “MMP 13 % inhibition at 0.2 μM (HTS)” value at MMP 13 stood at 38%.

Take `CCCCCCCCC(C(=O)NO)S(=O)(=O)c1cccc(OC)c1` (stereo not drawn) [Example 142, 2-(3-Methoxy-benzenesulfonyl)decanoic acid hydroxamide]: the “MMP 13 % inhibition at 0.2 μM (HTS)” value on MMP 13 stood at 69%.

In the case of `CCCCCCC(Sc1cc(Cl)ccc1Cl)C(=O)NO` (stereo not drawn) [Example 160, 2-(2,5-dichlorobenzenesulfanyl)-octanoic Acid Hydroxyamide], the “MMP 13 % inhibition at 0.2 μM (HTS)” value on MMP 13 is on record as 14%.

Turning to `CCCCCCC(Sc1ccc(NS(=O)(=O)c2cc(Cl)sc2Cl)cc1)C(=O)NO` (stereo not drawn) [Example 233], the “MMP 13 % inhibition at 36 nM (HTS)” value on MMP 13 is 33%. Further, the “TACE % inhibition at 1 mM” value on TACE stood at 19.8%.

The compound `CCCCCCC(Sc1nccn1C)C(=O)NO` (stereo not drawn) [Example 39, 2-(1-methyl-1H-imidazol-2-ylsulfanyl)-octanoic acid hydroxyamide] registered a melting point of 125 °C. For the same compound, the IC50 at TACE (read-out: TACE IC 50) came out at 69.4 nM.

Take `CSc1ccc(SC(COCc2ccccc2)C(=O)NO)cc1` (stereo not drawn) [Example 146, 3-benzyloxy-N-hydroxy-2-(4-methanesulfanyl-benzenesulfanyl)-propionamide]: the “MMP 13 % inhibition at 0.2 μM (HTS)” value at MMP 13 is recorded as 68%.

For the compound `CCCCCCCCC(C(=O)NO)S(=O)(=O)c1ccc(S(C)(=O)=O)cc1` (stereo not drawn) [Example 145, 2-(4-methanesulfonyl-benzenesulfonyl)decanoic acid hydroxamide], at MMP 13, the “MMP 13 % inhibition at 0.2 μM (HTS)” value stood at 45%.

For the compound “(1-Hydroxycarbamoyl-propane-1-sulfanyl)-propionic acid hydroxyamide [Example 122]”, the “TACE % inhibition at 1 mM” value at TACE is recorded as 3.1%.

As for `CCCCCCC(Sc1ccc(OCCCC)cc1)C(=O)NO` (stereo not drawn) [Example 200, 2-(4-Butoxy-benzenesulfanyl)-octanoic acid hydroxyamide], at TACE, the “TACE % inhibition at 1 mM” value came out at 37.9%.

`CCCCCCC(C(=O)NO)[S+]([O-])c1ccc(NS(=O)(=O)c2c(C)nn(C)c2Cl)cc1` (stereo not drawn) [Example 235, 5-Chloro-1,3-dimethyl-1H-pyrazole-4-sulfonic acid 4-(1-hydroxycarbamoyl-heptylsulfinyl)-hydroxyamide]: the “MMP 13 % inhibition at 36 nM (HTS)” value on MMP 13 is recorded as 59%. In addition, at TACE, the “TACE % inhibition at 1 mM” value is on record as 48.3%.

As for `CCCCCCC(C(=O)NO)S(=O)(=O)CCc1cccc[n+]1[O-]` (stereo not drawn) [Example 183, 2-[2-(1-Oxy-pyridin-2-yl)-ethanesulfonyl]-octanoic acid hydroxyamide], on MMP 13, the “MMP 13 % inhibition at 36 nM (HTS)” value is given as −6%.

On to `O=C(NO)C(Cc1cnc[nH]1)Sc1ccccc1Br` (stereo not drawn) [Example 152, 2-(2-bromo-benzenesulfanyl)-N-hydroxy-3-(3H-imidazol-4-yl)-propionamide], for which the “MMP 13 % inhibition at 0.2 μM (HTS)” value on MMP 13 is on record as 9%.

“3-(1-Hydroxycarbamoyl-heptylsulfinyl)-benzoicacid hydroxyamide [Example 188]”: the “TACE % inhibition at 1 mM” value at TACE turned out to be 16.2%.

As to `CCCCCCC(C(=O)NO)S(=O)(=O)c1ccc(OS(=O)(=O)c2ccccc2[N+](=O)[O-])cc1` (stereo not drawn) [Example 238, 2-Nitro-benzenesulfonic acid 4-(1-hydroxycarbamoyl-heptylsulfonyl)-hydroxyamide], the IC50 at TACE (solid phase compounds table) worked out at 930 nM.

Turning to `CCCCCCC(Sc1nc2ccccc2s1)C(=O)NO` (stereo not drawn) [Example 170, 2-(2-Benzothiazol-2-ylsulfanyl)-octanoic acid hydroxyamide], the “MMP 13 % inhibition at 36 nM (HTS)” value on MMP 13 is 32%.

For `N=C(N)NCCCC(C(=O)NO)S(=O)(=O)c1ccccc1Br` (stereo not drawn) [Example 159, 2-(2-Bromosulfonyl)-5-guanidino-pentanoic acid hydroxyamide], on MMP 13, the “MMP 13 % inhibition at 0.2 μM (HTS)” value was 49%.

Take `CCCCCCC(Sc1nc2ccccc2[nH]1)C(=O)NO` (stereo not drawn) [Example 168, 2-(2-Benzimidazol-2-ylsulfanyl)-octanoic acid hydroxyamide]: the “MMP 13 % inhibition at 0.2 μM (HTS)” value on MMP 13 is recorded as 21%.

For `CCCCCCC(Sc1ccc(NS(=O)(=O)CC)cc1)C(=O)NO` (stereo not drawn) [Example 234, Ethanesulfonic acid 4(1-hydroxycarbamoyl-heptylsulfanyl)-hydroxyamide], the “TACE % inhibition at 1 mM” value on TACE came out at 18.4%.

Take `CCCCCCC(Sc1cccc(OC)c1)C(=O)NO` (stereo not drawn) [Example 162, 2-(3-Methoxybenzenesulfanyl)-octanoic acid hydroxyamide]: the “MMP 13 % inhibition at 0.2 μM (HTS)” value at MMP 13 is listed as 13%.

Take `CCCCCCCCC(C(=O)NO)[S+]([O-])c1cccc(OC)c1` (stereo not drawn) [Example 141, 2-(3-Methoxy-benzenesulfinyl)decanoic acid hydroxamide]: the “MMP 13 % inhibition at 0.2 μM (HTS)” value on MMP 13 was found to be 32%.

Take `CCCCCCC(C(=O)NO)S(=O)(=O)c1[nH]c2ccccc2[n+]1[O-]` (stereo not drawn) [Example 181, 2-(3-Oxy-1H-benzimidazole-2-sulfonyl)-octanoic acid hydroxyamide]: on MMP 13, the “MMP 13 % inhibition at 36 nM (HTS)” value was 6%.

In the case of `CCCCCCC(Sc1ccc(OCc2ccccc2)cc1)C(=O)NO` (stereo not drawn) [Example 199, 2-(^4-Benzyloxy-phenylsulfanyl)-octanoic acid hydroxyamide], on MMP 13, the “MMP 13 % inhibition at 36 nM (HTS)” value was −10%.

In the case of `CCCCCCC(Sc1ccc(OCCN2CCNCC2)cc1)C(=O)NO` (stereo not drawn) [Example 201, 2-[4-(2-Piperazine-1-yl-ethoxy)-benzenesulfanyl]-octanoic acid hydroxyamide], the “TACE % inhibition at 1 mM” value at TACE turned out to be 50.9%.

With `CCCCCCC(C(=O)NO)[S+]([O-])c1ccc(NS(=O)(=O)c2cc(Cl)sc2Cl)cc1` (stereo not drawn) [Example 236, 2,5-Dichloro-thiophene-3-sulfonic acid 4-(1-hydroxycarbamoyl-heptylsulfinyl)-hydroxyamide], on TACE, the “TACE % inhibition at 1 mM” value is recorded as 35%.

With `CCCCCCC(Sc1nc2ccccc2o1)C(=O)NO` (stereo not drawn) [Example 169, 2-(2-Benzooxazol-2-ylsulfanyl)-octanoic acid hydroxyamide], the “MMP 13 % inhibition at 36 nM (HTS)” value on MMP 13 came out at 28%.

For `COc1ccc(S(=O)(=O)C2(C(=O)NO)CCN(C3CCCCCCC3)CC2)cc1` [Example 94, 1-Cyclooctyl-4-(4-methoxy-benzenesulfonyl)-piperidine-4-carboxylic acid hydroxyamide], the melting point is > 200 °C. For the same compound, the IC50 on TACE (read-out: TACE IC 50) was 22.9 nM.

As to “(1-Hydroxycarbamoyl-propane-1-sulfonyl)-acetic acid hydroxyamide [Example 120]”, the “TACE % inhibition at 1 mM” value at TACE was 19.9%.

For `COC(=O)CCC(Sc1ccc(SC)cc1)C(=O)NO` (stereo not drawn) [Example 131, 4-Hydroxycarbamoyl-4-(4-methanesulfanyl-phenylsulfanyl)-butyric acid methyl ester], the “MMP 13 % inhibition at 0.2 μM (HTS)” value on MMP 13 is 71%.

On to `COc1ccc(S(=O)(=O)C(C/C=C(\C)CCC=C(C)C)(Cc2ccc(OCCN3CCOCC3)cc2)C(=O)NO)cc1` (stereo not drawn) [Example 26, (4E)-2-(4-Methoxy-benzenesulfonyl)-5,9 dimethyl-2-(4-(2-morpholin-4-yl-ethoxy)-benzyl]-deca-4,8-dienoic acid hydroxyamide], for which the IC50 on TACE (read-out: TACE IC 50) is 34.6 nM.

The compound `COc1ccc(S(=O)(=O)C2(C(=O)NO)CCN(C(C)(C)C)CC2)cc1` [Example 92, 1-Tert-butyl-4-(4-methoxy-benzenesulfonyl)-piperidine-4-carboxylic acid hydroxyamide] yielded a melting point of 40 °C. For the same compound, the IC50 at TACE (read-out: TACE IC 50) was 9.7 nM.

As for `CCCCCCCCC(Sc1cccc(OC)c1)C(=O)NO` (stereo not drawn) [Example 140, 2-(3-methoxy-benzenesulfanyl)decanoic acid hydroxamide], the “MMP 13 % inhibition at 0.2 μM (HTS)” value on MMP 13 is 29%.

On to `COc1ccc(S(=O)(=O)C2(C(=O)NO)CCN(C(C)C)CC2)cc1` [Example 96, 1-Isopropyl-4-(4-methoxy-benzenesulfonyl)-piperidine-4-carboxylic acid hydroxyamide], for which the melting point amounted to 75 °C. Besides, the IC50 on TACE (read-out: TACE IC 50) worked out at 18.1 nM.

`CCCCCCC(C(=O)NO)[S+]([O-])c1nc2ccccc2[nH]1` (stereo not drawn) [Example 177, 2-(2-Benzimidazol-2-ylsulfinyl)-octanoic acid hydroxyamide]: the “MMP 13 % inhibition at 36 nM (HTS)” value on MMP 13 came to 5%.

Regarding `COc1ccc(S(=O)(=O)C2(C(=O)NO)CCN(Cc3ccc(Br)cc3)CC2)cc1` [Example 90, 1-(4Bromo-benzyl)-4-(4-methoxy-benzenesulfonyl)-piperidine-4-carboxylic acid hydroxyamide], the melting point was 180 °C. The IC50 at TACE (read-out: TACE IC 50) amounted to 71.9 nM.

With `N=C(N)NCCCC(Sc1ccccc1Br)C(=O)NO` (stereo not drawn) [Example 157, 2-(2-Bromosulfanyl)-5-guanidino-pentanoic acid hydroxyamide], the “MMP 13 % inhibition at 0.2 μM (HTS)” value at MMP 13 was 19%.

Take `N=C(N)NCCCC(C(=O)NO)[S+]([O-])c1ccccc1Br` (stereo not drawn) [Example 158, 2-(2-Bromosulfinyl)-5-guanidino-pentanoic acid hydroxyamide]: at MMP 13, the “MMP 13 % inhibition at 0.2 μM (HTS)” value stood at 33%.
